Measurements taken from publication PMC3430861, “The pharmacological profile of ELIC, a prokaryotic GABA-gated receptor” (Neuropharmacology, 2012).
Read-outs that look alike come from different tables or passages of the source.

Experiments:
ELIC [1] = biological target: T1, ELIC (Dickeya chrysanthemi, UniProt P0C7B7, INS163G); test: cell-based; type: cell-based, Erwinia chrysanthemi
T1 construct: expressed in transfected cells; host or cells: Xenopus laevis oocytes injected with cRNA
Experimental: Xenopus laevis oocyte-positive females were purchased from NASCO (Fort Atkinson, Wisconsin, USA) and maintained according to standard methods.
(§1) The ELIC sequence (Genbank accession number POC7B7) was purchased from Genscript as a synthetic gene with optimized codon usage for expression in Escherichia coli. […] Stage V and VI oocytes were injected with 20 ng cRNA, and currents recorded 1–3 days post-injection.

GLIC = system: GLIC; design: method as in Alqazzaz et al., 2011; conditions: ref Alqazzaz et al., 2011, cited from earlier work; for inhibition of GLIC (yes/no): comparison ELIC vs GLIC
ELIC [2] = biological target: T2, ELIC (Dickeya chrysanthemi, UniProt P0C7B7); test: cell-based; type: cell-based, Erwinia chrysanthemi
T2 sequence (P0C7B7 8-321): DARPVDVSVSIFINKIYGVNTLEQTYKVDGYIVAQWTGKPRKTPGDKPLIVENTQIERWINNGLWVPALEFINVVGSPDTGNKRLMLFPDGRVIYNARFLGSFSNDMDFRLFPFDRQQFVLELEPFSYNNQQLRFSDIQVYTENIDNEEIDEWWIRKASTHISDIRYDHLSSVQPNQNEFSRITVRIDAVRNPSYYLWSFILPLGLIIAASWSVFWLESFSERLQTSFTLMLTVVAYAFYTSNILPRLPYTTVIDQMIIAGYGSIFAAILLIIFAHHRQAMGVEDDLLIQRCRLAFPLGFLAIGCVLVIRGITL
Experimental: Xenopus laevis oocyte-positive females were purchased from NASCO (Fort Atkinson, Wisconsin, USA) and maintained according to standard methods. Harvested stage V–VI Xenopus oocytes were washed in four changes of ND96 (96 mM NaCl, 2 mM KCl, 1 mM MgCl2, 5 mM HEPES, pH 7.5), de-folliculated in 1.5 mg ml^−1 collagenase Type 1A for approximately 2 h, washed again in four changes of ND96 and stored in ND96 containing 2.5 mM sodium pyruvate, […], 0.7 mM theophylline.
as §1

[3] = 10 mM, read-out: pEC50 (EC50): agonist effect at the concentration shown (converted)
[4] = Hill coefficient of inhibition curve
[5] = 1 mM, read-out: pEC50 (EC50): agonist effect at the concentration shown (converted)

O=C(O)[C@@H]1CCC(O)=N1 [pyroglutamate]
effect on ELIC (agonist test) (ELIC [1]; 10 mM): did not activate ELIC

CN(C)CCCN1c2ccccc2Sc2ccc(Cl)cc21 [Chlorpromazine]
inhibition of GLIC (yes/no) (GLIC): inhibiting both receptors
inhibition of ELIC (yes/no) (ELIC [2]): inhibiting both receptors
nH (ELIC [2]): 1.2 ± 0.4
IC50 (ELIC [2]; IC50): 230 µM
IC50 (ELIC [2]; pIC50 (Mean ± SEM)): 229 µM

O=C([O-])CCC(=O)[O-].[Na+].[Na+] [sodium succinate]
effect on ELIC (agonist test) (ELIC [1]; 10 mM): did not activate ELIC
EC50 (ELIC [1]; [3]): > 10000 µM

O=S1OC[C@@H]2[C@H](CO1)[C@@]1(Cl)C(Cl)=C(Cl)[C@]2(Cl)C1(Cl)Cl (stereo partly drawn) [α-endosulfan]
IC50 (GLIC; GLIC): 17 µM
nH (ELIC [2]): 0.7 ± 0.2
IC50 (ELIC [2]; IC50): 17 µM
IC50 (ELIC [2]; pIC50 (Mean ± SEM)): 17 µM

CSCC[C@H](N)C(=O)O [Methionine]
effect on ELIC (agonist test) (ELIC [1]; 1 mM): no effect

NCCC(=O)O [β-alanine]
effect on ELIC (agonist test) (ELIC [1]; 10 mM): no effect

N=C(N)NCCC[C@H](N)C(=O)O [Arginine]
effect on ELIC (agonist test) (ELIC [1]; 1 mM): no effect

Oc1ccc2[nH]ccc2c1 [5-hydroxyindole]
inhibition of ELIC (yes/no) (ELIC [2]): inhibiting neither

Ivermectin
inhibition of ELIC (yes/no) (ELIC [2]): inhibiting neither
pIC50: no inhibition (ELIC [2]): NI (key: NI: no inhibition at 10 mM; NI*: no inhibition at 100 μM)

CC(=O)O[C@H]1C[C@@H]2CC[C@@H]3[C@H](CC[C@@]4(C)[C@H]3C[C@H]([N+]3(C)CCCCC3)[C@@H]4OC(C)=O)[C@@]2(C)C[C@@H]1[N+]1(C)CCCCC1 [Pancuronium]
pIC50: no inhibition (ELIC [2]): NI (key: NI: no inhibition at 10 mM; NI*: no inhibition at 100 μM)

NC(=O)CC[C@H](N)C(=O)O [Glutamine]
effect on ELIC (agonist test) (ELIC [1]; 1 mM): no effect
effect when co-applied in the presence of GABA (ELIC [2]): no effect

O=C(O)CCC(=O)O [succinic acid]
effect on ELIC (agonist test) (ELIC [1]; 10 mM): did not activate ELIC

NCCCC[C@H](N)C(=O)O [Lysine]
effect on ELIC (agonist test) (ELIC [1]; 1 mM): no effect

O=C(O)Cc1c[nH]c2ccccc12 [3-indole acetic acid]
effect on ELIC (agonist test) (ELIC [1]; 10 mM): no effect
EC50 (ELIC [1]; [3]): > 10000 µM

N#Cc1nn(-c2c(Cl)cc(C(F)(F)F)cc2Cl)c(N)c1[S+]([O-])C(F)(F)F (stereo not drawn) [Fipronil]
inhibition of GLIC (yes/no) (GLIC): inhibiting both receptors
inhibition of ELIC (yes/no) (ELIC [2]): inhibiting both receptors
nH (ELIC [2]): 1.8 ± 0.4
IC50 (ELIC [2]; IC50): 350 µM
IC50 (ELIC [2]; pIC50 (Mean ± SEM)): 347 ± 4.01 µM

C[C@H](N)C(=O)O [Alanine]
effect on ELIC (agonist test) (ELIC [1]; 1 mM): no effect

O=[N+]([O-])NC1=NCCN1Cc1ccc(Cl)nc1 [Imidaclopride]
inhibition of ELIC (yes/no) (ELIC [2]): inhibiting neither

CC(C)C[C@H](N)C(=O)O [Leucine]
effect on ELIC (agonist test) (ELIC [1]; 1 mM): no effect

NCCCP(=O)(O)O [3-aminophosphonic acid]
effect on ELIC (agonist test) (ELIC [1]; 100 mM): no effect
EC50 (ELIC [1]; 100 mM, read-out: pEC50 (EC50): agonist effect at the concentration shown (converted)): > 10000 µM

CC[N+](CC)(CC)CC [tetraethylammonium]
IC50 (ELIC [2]; read-out: IC50): ~20000 µM

N[C@@H](CC(=O)O)C(=O)O [Aspartate]
effect on ELIC (agonist test) (ELIC [1]; 1 mM): no effect

ClC1=C(Cl)[C@]2(Cl)[C@@H]3[C@@H]4C[C@@H]([C@H]5O[C@@H]45)[C@@H]3[C@@]1(Cl)C2(Cl)Cl [Dieldrin]
nH (ELIC [2]): 1.1 ± 0.1
IC50 (ELIC [2]; IC50): 66 µM
IC50 (ELIC [2]; pIC50 (Mean ± SEM)): 66.1 µM

N[C@@H](Cc1ccccc1)C(=O)O [Phenylalanine]
effect on ELIC (agonist test) (ELIC [1]; 1 mM): no effect

C[N+](C)(C)C [tetramethylammonium]
IC50 (ELIC [2]; read-out: IC50): ~20000 µM

N[C@@H](CCC(=O)O)C(=O)O [L-glutamate]
effect on ELIC (agonist test) (ELIC [1]; 1 mM): no effect
effect on ELIC (agonist test) (ELIC [1]; 10 mM): did not activate ELIC

NC(=O)C[C@H](N)C(=O)O [Asparagine]
effect on ELIC (agonist test) (ELIC [1]; 1 mM): no effect

NCCCC(=O)O [GABA]
Hill Slope (ELIC [1]; wild type ELIC, agonist concentration-response): 2.1 ± 0.6
pEC50 (ELIC [1]; wild type ELIC, oocytes clamped at −60 mV): 2.78 ± 0.04
EC50 (ELIC [1]; wild type ELIC, oocytes clamped at −60 mV, read-out: EC50 (converted)): 1600 µM

O=C1CCCO1 [γ-butyrolactone]
effect on ELIC (agonist test) (ELIC [1]; 10 mM): did not activate ELIC

Cc1cccc(C)c1N=C([O-])C[N+](C)(C)C.Cl [QX-222]
inhibition of ELIC (yes/no) (ELIC [2]): inhibiting neither
pIC50: no inhibition (ELIC [2]): NI (key: NI: no inhibition at 10 mM; NI*: no inhibition at 100 μM)

CCC(N)C(=O)O (stereo not drawn) [α-aminobutyrate]
effect on ELIC (agonist test) (ELIC [1]; 10 mM): did not activate ELIC
EC50 (ELIC [1]; [3]): > 10000 µM

CC(C)[C@H](N)C(=O)O [Valine]
effect on ELIC (agonist test) (ELIC [1]; 1 mM): no effect

CCCC(C(=O)OCCN(CC)CC)(c1ccccc1)c1ccccc1 [Proadifen]
nH (ELIC [2]): 2.9 ± 0.6
pIC50 (Mean ± SEM) (ELIC [2]): 5.09 ± 0.04
IC50 (ELIC [2]; IC50): < 20 µM
IC50 (ELIC [2]; read-out: IC50): 8.1 µM

α-amino hydroxbutyric acid
effect on ELIC (agonist test) (ELIC [1]; 10 mM): no effect
EC50 (ELIC [1]; [3]): > 10000 µM

NC12CC3CC(CC(C3)C1)C2 [Amantadine]
inhibition of GLIC (yes/no) (GLIC): inhibiting both receptors
inhibition of ELIC (yes/no) (ELIC [2]): inhibiting both receptors
nH (ELIC [2]; [4]): 2.5 ± 0.4
IC50 (ELIC [2]; IC50): 370 µM
IC50 (ELIC [2]; pIC50 (Mean ± SEM)): 372 µM

COc1ccc(-c2ccc(=N)n(CCCC(=O)O)n2)cc1 [Gabazine (SR-95531), Gabazine]
effect when co-applied in the presence of GABA (ELIC [2]): no effect

N[C@@H](Cc1c[nH]c2ccccc12)C(=O)O [Tryptophan]
effect on ELIC (agonist test) (ELIC [1]; 1 mM): no effect

CC(=O)OCC[N+](C)(C)C [ACh]
EC50 (ELIC [1]; [5]): > 10000 µM
effect on ELIC (agonist test) (ELIC [1]; 10 mM): no ELIC responses

O=C(O)CCC(=O)C(=O)O [α-ketoglutarate]
effect on ELIC (agonist test) (ELIC [1]; 10 mM): did not activate ELIC
EC50 (ELIC [1]; [3]): > 10000 µM

CC(C)(C)[C@]1(O)CC2OC(=O)CC23C(=O)OC2OC(=O)[C@H](O)C231 (stereo partly drawn) [Bilobalide]
nH (ELIC [2]; [4]): 1.3 ± 0.2
IC50 (ELIC [2]; IC50, wild type ELIC, at the GABA EC50 (1.6 mM)): 330 µM
IC50 (ELIC [2]; pIC50 (Mean ± SEM), wild type ELIC, at the GABA EC50 (1.6 mM)): 331 µM

O=C(O)[C@@H]1CCCN1 [Proline]
effect on ELIC (agonist test) (ELIC [1]; 1 mM): no effect
effect when co-applied in the presence of GABA (ELIC [2]): no effect

C[C@@H](O)[C@H](N)C(=O)O [Threonine]
effect on ELIC (agonist test) (ELIC [1]; 1 mM): no effect

C[C@@H]1C[C@H]2[C@@H]3CCC4=CC(=O)C=C[C@]4(C)[C@@]3(F)[C@@H](O)C[C@]2(C)[C@@]1(O)C(=O)CO [Dexamethasone]
inhibition of ELIC (yes/no) (ELIC [2]; comparison ELIC vs GLIC): inhibiting neither

CC(=O)[C@H]1CC[C@H]2[C@@H]3CCC4=CC(=O)CC[C@]4(C)[C@H]3CC[C@]12C [Progesterone]
nH (ELIC [2]): 1.8 ± 0.58
IC50 (ELIC [2]; IC50): 150 µM
IC50 (ELIC [2]; pIC50 (Mean ± SEM)): 151 µM

N[C@@H](CO)C(=O)O [Serine]
effect on ELIC (agonist test) (ELIC [1]; 1 mM): no effect

CN1CCc2cc3c(cc2[C@H]1[C@@H]1OC(=O)c2c1ccc1c2OCO1)OCO3 [Bicuculline]
effect when co-applied in the presence of GABA (ELIC [2]; 100 μM): no effect
pIC50: no inhibition (ELIC [2]; wild type ELIC, at the GABA EC50 (1.6 mM)): NI* (no inhibition at 100 μM)

NCCc1c[nH]c2ccc(O)cc12 [5-HT]
EC50 (ELIC [1]; [5]): > 10000 µM
effect on ELIC (agonist test) (ELIC [1]; 10 mM): no ELIC responses

CC[C@H](C)[C@H](N)C(=O)O [Isoleucine]
effect on ELIC (agonist test) (ELIC [1]; 1 mM): no effect

NCC(=O)O [Glycine]
EC50 (ELIC [1]; [5]): > 10000 µM
effect on ELIC (agonist test) (ELIC [1]; 10 mM): no ELIC responses
EC50 (ELIC [1]; [3]): > 10000 µM

N[C@@H](Cc1ccc(O)cc1)C(=O)O [Tyrosine]
effect on ELIC (agonist test) (ELIC [1]; 1 mM): no effect
effect when co-applied in the presence of GABA (ELIC [2]): no effect

N[C@@H](Cc1c[nH]cn1)C(=O)O [Histidine]
effect on ELIC (agonist test) (ELIC [1]; 1 mM): no effect
effect when co-applied in the presence of GABA (ELIC [2]): no effect

N[C@@H](CS)C(=O)O [Cysteine]
effect on ELIC (agonist test) (ELIC [1]; 1 mM): no effect

NCc1cc(=O)[nH]o1 [muscimol]
effect on ELIC (agonist test) (ELIC [1]; 30 μM): no effect
